Results as given in ChEMBL document CHEMBL3881530, “Compounds and methods for inhibiting NHE-mediated antiport in the treatment of disorders associated with fluid retention or salt overload and gastrointestinal tract disorders” (2013).
pIC50: −log10 of the molar value. The source made the active and inactive calls. The calls are words filed in the database; no cut-off is given here.

Assays:
Rattus norvegicus [1] = experiment: Reduction in fecal stool form in 1% psyllium diet fed Sprague-Dawley rat at 3 mg/kg administered via oral gavage measured after 16 hrs; type: functional, organism-based
Rattus norvegicus [2] = experiment: Increase in fecal water content in 1% psyllium diet fed Sprague-Dawley rat at 3 mg/kg administered via oral gavage measured after 16 hrs; type: functional, organism-based
Rattus norvegicus [3] = experiment: Decrease in urinary sodium level in 1% psyllium diet fed Sprague-Dawley rat at 3 mg/kg administered via oral gavage measured after 16 hrs by ion chromatographic analysis; type: functional, organism-based
Rattus norvegicus [4] = experiment: Antinociceptive activity in Wistar rat assessed as inhibition of partial restraint stress-induced visceral hyperalgesia at 10 mg/kg, po administered 1 hr prior to 45 to 60 mm Hg colorectal distension pressure by measuring number of abdominal contractions monitoring every 5 mins during rectal distension; type: functional, organism-based; conditions: Abdominal cavity
Rattus norvegicus [5] = experiment: Increase in fecal sodium level in Sprague-Dawley rat at 3 mg/kg administered via oral gavage measured after 16 hrs by ion chromatographic analysis; type: functional, organism-based
[6] = target: Sodium/hydrogen exchanger 1 (Homo sapiens, UniProt P19634); experiment: Inhibition of NHE-1 (unknown origin)
Sodium/hydrogen exchanger 1, sequence (P19634 whole entry): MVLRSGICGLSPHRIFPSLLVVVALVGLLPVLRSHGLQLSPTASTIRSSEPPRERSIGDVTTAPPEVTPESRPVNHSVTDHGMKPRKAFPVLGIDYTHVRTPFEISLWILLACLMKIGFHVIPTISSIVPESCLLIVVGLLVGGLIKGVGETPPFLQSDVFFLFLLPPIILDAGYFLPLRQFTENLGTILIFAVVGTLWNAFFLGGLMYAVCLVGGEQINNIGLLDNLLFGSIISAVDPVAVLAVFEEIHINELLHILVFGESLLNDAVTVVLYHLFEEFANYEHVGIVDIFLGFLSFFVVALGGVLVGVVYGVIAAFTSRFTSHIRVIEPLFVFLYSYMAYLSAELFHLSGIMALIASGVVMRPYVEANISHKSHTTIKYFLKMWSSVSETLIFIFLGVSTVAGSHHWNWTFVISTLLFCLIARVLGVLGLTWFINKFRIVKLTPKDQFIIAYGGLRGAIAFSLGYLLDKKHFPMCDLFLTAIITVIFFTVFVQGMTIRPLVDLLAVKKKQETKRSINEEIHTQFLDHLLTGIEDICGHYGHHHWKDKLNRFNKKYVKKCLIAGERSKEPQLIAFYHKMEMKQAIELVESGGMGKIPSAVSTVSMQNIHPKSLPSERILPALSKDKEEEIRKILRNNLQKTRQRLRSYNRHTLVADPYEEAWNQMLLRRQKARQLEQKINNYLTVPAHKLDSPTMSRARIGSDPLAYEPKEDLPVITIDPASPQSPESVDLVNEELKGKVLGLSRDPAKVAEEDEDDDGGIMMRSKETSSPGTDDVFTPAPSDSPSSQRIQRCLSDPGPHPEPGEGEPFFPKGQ

[7] = target: T1, Sodium/hydrogen exchanger 2 (Homo sapiens, UniProt Q9UBY0); experiment: Inhibition of NHE-2 (unknown origin)
T1 sequence (Q9UBY0 whole entry): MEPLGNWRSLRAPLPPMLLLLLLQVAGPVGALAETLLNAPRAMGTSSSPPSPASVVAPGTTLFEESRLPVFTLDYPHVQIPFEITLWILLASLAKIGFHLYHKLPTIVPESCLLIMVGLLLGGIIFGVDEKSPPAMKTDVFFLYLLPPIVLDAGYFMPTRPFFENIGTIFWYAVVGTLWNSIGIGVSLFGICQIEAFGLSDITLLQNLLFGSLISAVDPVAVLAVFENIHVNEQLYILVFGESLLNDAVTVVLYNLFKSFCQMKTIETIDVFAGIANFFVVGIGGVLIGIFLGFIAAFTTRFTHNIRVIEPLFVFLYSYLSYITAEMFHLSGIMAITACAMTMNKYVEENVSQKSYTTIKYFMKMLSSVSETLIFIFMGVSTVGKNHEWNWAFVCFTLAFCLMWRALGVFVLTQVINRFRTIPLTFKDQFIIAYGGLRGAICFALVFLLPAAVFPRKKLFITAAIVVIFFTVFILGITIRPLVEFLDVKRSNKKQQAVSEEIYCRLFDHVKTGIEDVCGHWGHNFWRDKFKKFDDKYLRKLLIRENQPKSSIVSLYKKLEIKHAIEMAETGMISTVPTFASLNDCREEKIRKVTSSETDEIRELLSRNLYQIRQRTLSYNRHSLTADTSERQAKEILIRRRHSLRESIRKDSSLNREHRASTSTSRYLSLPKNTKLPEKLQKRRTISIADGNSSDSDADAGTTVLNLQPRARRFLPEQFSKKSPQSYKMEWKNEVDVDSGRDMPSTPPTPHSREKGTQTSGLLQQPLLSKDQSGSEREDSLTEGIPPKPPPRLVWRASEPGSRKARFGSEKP

[8] = target: T2, Sodium/hydrogen exchanger 3 (Homo sapiens, UniProt P48764); experiment: Inhibition of NHE-3 (unknown origin)
T2 sequence (P48764 whole entry): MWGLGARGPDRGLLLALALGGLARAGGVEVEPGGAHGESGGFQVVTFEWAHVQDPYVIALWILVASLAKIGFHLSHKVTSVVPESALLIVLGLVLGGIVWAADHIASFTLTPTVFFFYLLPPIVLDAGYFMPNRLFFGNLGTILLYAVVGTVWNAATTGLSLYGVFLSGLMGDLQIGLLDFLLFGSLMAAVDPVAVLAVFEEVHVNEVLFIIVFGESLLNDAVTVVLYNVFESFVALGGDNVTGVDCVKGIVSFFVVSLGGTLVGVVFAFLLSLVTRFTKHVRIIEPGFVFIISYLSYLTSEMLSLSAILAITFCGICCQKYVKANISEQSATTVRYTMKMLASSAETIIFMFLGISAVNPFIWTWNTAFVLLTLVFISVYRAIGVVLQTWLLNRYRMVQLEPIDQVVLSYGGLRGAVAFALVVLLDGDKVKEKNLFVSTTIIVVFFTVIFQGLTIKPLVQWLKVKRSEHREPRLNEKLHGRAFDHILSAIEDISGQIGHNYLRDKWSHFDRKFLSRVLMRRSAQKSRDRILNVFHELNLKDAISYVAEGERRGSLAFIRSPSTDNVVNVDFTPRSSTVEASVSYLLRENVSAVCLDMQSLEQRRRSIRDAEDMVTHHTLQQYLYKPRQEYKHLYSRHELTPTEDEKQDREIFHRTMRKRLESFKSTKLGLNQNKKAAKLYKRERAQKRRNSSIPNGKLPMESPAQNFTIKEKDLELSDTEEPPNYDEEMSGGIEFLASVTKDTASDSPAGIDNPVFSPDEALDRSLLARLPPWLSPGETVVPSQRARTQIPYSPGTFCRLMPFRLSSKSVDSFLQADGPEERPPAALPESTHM

Rattus norvegicus [9] = experiment: Effect on fecal water content in Sprague-Dawley rat at 3 mg/kg administered via oral gavage measured after 16 hrs relative to control; type: functional
[10] = Drug recovery in Sprague-Dawley rat feces at 0.1 mg/kg administered via oral gavage measured after 72 hrs by LC/MS/MS analysis; type: ADME, organism-based; conditions: faeces, read-out: Drug recovery
Rattus norvegicus [11] = experiment: Decrease in urinary sodium level in Sprague-Dawley rat administered via oral gavage measured after 16 hrs by ion chromatographic analysis; type: functional
[12] = Cmax in Sprague-Dawley rat at 2.2 mg/kg administered via oral gavage measured up to 4 hrs by LC/MS/MS analysis; type: ADME, organism-based; parameters: dose 2.2 mg/kg, route oral; conditions: in vivo
[13] = AUC in Sprague-Dawley rat at 2.2 mg/kg administered via oral gavage measured up to 4 hrs by LC/MS/MS analysis; type: ADME, organism-based; parameters: time < 4 hr, dose 2.2 mg/kg, route oral; conditions: in vivo
[14] = Cmax in Sprague-Dawley rat at 1.3 mg/kg administered via oral gavage measured up to 4 hrs by LC/MS/MS analysis; type: ADME, organism-based; parameters: dose 1.3 mg/kg, route oral; conditions: in vivo
[15] = AUC in Sprague-Dawley rat at 1.3 mg/kg administered via oral gavage measured up to 4 hrs by LC/MS/MS analysis; type: ADME, organism-based; parameters: dose 1.3 mg/kg, time < 4 hr, route oral; conditions: in vivo

pIC50 [6]	pIC50 [7]	pIC50 [8]	SMILES	Activity (Rattus norvegicus [9]) [%]	also measured
–	–	–	CN1Cc2c(Cl)cc(Cl)cc2C(c2cccc(S(=O)(=O)NCCOCCOCCOCCNC(=O)C(O)C(O)C(=O)NCCOCCOCCOCCNS(=O)(=O)c3cccc(C4CN(C)Cc5c(Cl)cc(Cl)cc54)c3)c2)C1 (single isomer, unassigned)	–	Activity (Rattus norvegicus [1]): Active; Activity (Rattus norvegicus [2]): Active; Activity (Rattus norvegicus [3]): Active; inhibition (Rattus norvegicus [4]): Active; Activity (Rattus norvegicus [5]): Active
8.70	7.15	5.88	C/C(=C\c1cccc(/C=C(\C)C(=O)NC(=N)N)c1)C(=O)N=C(N)N	–	–
9.00	6.37	4.96	Cc1ccc(F)cc1[C@@H]1C/C(=N\N=C(N)N)c2c(C)cccc2C1	–	–
–	5.74	< 4.52	CC1(C)[C@H](C(=O)N=C(N)N)[C@H]1c1cccc2c1CCO2	–	–
–	–	–	CN1Cc2c(Cl)cc(Cl)cc2[C@H](c2cccc(S(=O)(=O)NCCOCCOCCNC(=O)NCCCCNC(=O)NCCOCCOCCNS(=O)(=O)c3cccc([C@@H]4CN(C)Cc5c(Cl)cc(Cl)cc54)c3)c2)C1.Cl.Cl (single isomer, unassigned) [TENAPANOR HYDROCHLORIDE]	134	dose excreted at 72 h [10]: 90.5 to 93.8%
–	–	–	CN1Cc2c(Cl)cc(Cl)cc2[C@H](c2cccc(S(=O)(=O)NCCOCCOCCOCCNC(=O)NCCCCNC(=O)NCCOCCOCCOCCNS(=O)(=O)c3cccc([C@@H]4CN(C)Cc5c(Cl)cc(Cl)cc54)c3)c2)C1 (single isomer, unassigned)	118	Activity (Rattus norvegicus [11]): Dose-dependent effect
4.46	6.51	< 4.52	Cc1ccc(F)cc1[C@H]1C/C(=N\N=C(N)N)c2c(C)cccc2C1	–	–
–	–	–	C/C(=C\c1cc(F)c(Oc2ccc(S(=O)(=O)NCCP(=O)(O)O)cc2)c(F)c1)C(=O)N=C(N)N	–	Cmax [12]: 9 ng/mL; AUC at 4 h [13]: 23 ng·h/mL
–	–	–	CN1Cc2c(Cl)cc(Cl)cc2C(c2cccc(NS(=O)(=O)NCCP(=O)(O)O)c2)C1 (stereo unspecified)	–	Cmax [14]: 11 ng/mL; AUC at 4 h [15]: 56 ng·h/mL
–	–	–	CN1Cc2c(Cl)cc(Cl)cc2[C@H](c2ccc(S(=O)(=O)NCCOCCOCCNC(=O)COCC(=O)NCCOCCOCCNS(=O)(=O)c3ccc([C@@H]4CN(C)Cc5c(Cl)cc(Cl)cc54)cc3)cc2)C1.Cl.Cl (single isomer, unassigned)	127	Activity (Rattus norvegicus [11]): Dose-dependent effect
